The subject of assay [1] is farnesylated proteins F1, F2 and F3 in Met18b-2 cells. Kind of assay: Inhibition of intracellular farnesylation in intact Met18b-2 cells, Triton-soluble proteins F1, F2, F3. Format: cell-based, Chinese hamster.
The test system of assay [2] is low molecular weight GTP binding proteins (SMG) in Met18b-2 cells. Kind of assay: [3H]mevalonate labeling of low molecular weight GTP binding proteins (SMG) in Met18b-2 cells. Type of assay: cell-based, Chinese hamster. The source says:
To study farnesylation in intact cells we used Met18b-2 cells, a line of Chinese hamster ovary (CHO) cells that takes up [3H]mevalonate efficiently (see Faust, J., and Krieger, M. J. Biol. Chem. 262, 1966 (1987)) owing to the production of a mevalonate transport protein (see Kim, C. M., Goldstein, J. L., Brown, M. S. J. Biol. Chem. 267, 23113 (1992)). The [3H]mevalonate is converted by the cells into [3H]farnesyl pyrophosphate and [3H]geranylgeranyl pyrophosphate, which are then attached to proteins (Kim, C. M., Goldstein, J. L., Brown, M. S. J. Biol. Chem. 267, 23113 (1992)). In the assay, stock cultures of Met18b-2 cells were seeded at a density of 3-105 cells per 60 mm dish in 3 ml of medium A (Dulbecco's modified Eagle medium/Ham's F12 medium (1:1, v/v) containing 100 U/ml penicillin and 100 μg/ml streptomycin) supplemented with 5% (v/v) fetal calf serum (FCS). On day 3, each monolayer was refed with 1 ml medium A supplemented with 1% FCS (dialyzed against 0.15 M NaCl). At this point the cells were treated with 100 μM compactin (see Brown, M. S., Faust, J. R., Goldstein, J. L., Kaneko, I., and Endo, A. J. Biol. Chem. 253, 1121 (1978)) which blocks the synthesis of unlabeled mevalonate within the cells. Each compound was dissolved at 25 mM in DMSO/10 mM DTT immediately before use and 10 μl of this solution added directly. After 2 hr incubation at 37° C., each monolayer received 100 μCi [3H]mevalonate (60 Ci/mmol, American Radiolabeled Chemicals, Inc.) added in 100 μl of the medium A, and the incubation continued for 4 hr. The cells were harvested by rinsing three times with 3 ml of 50 mM Tris-HCl/0.15 M NaCl (pH 7.5). 300 μl of lysis buffer (0.5X Dulbecco's phosphate-buffered saline containing 1% Triton X-100, 5 μg/ml leupeptin, 5 μg/ml pepstatin, 0.5 mM phenylmethylsulfonyl fluoride, and 0.05 U/ml aprotinin) was added to each monolayer. After incubation on ice for 5 mon, the lysates were centrifuged 30 sec in a microfuge at 12,000 g. […] Protein concentrations were determined using the BCA protein assay reagent (Pierce) according to the manufacturer's instructions. […]

The next assay concerns MDA-7 cells. Kind of assay: Growth inhibition of human tumor line MDA-7. Format: cell-based. The conditions noted are these: MDA-7, breast, not ras transformed, read-out: % growth inhib. Here is the method: To examine the effects of farnesyltransferase inhibition on cell growth, three cell lines (ras-transformed rat-1, src-transformed rat-1, and parental rat-1 cells) were seeded (see FIG. 7) at low density and allowed to grow for 10 days in the absence or presence of increasing concentrations of BZA-5B (compound 37). See Example 128 for description of cells. On day 0, cells were plated in monolayer culture at 2×10^3 cells per well (24-well plates) in 1 ml DMEM supplemented with 10% fetal calf serum, 100 U/ml penicillin, 100 μg/ml streptomycin, 0.5 mM DTT, 0.025% DMSO, and the indicated concentration of BZA-5B (compound 37). On days 3 and 7, cells were washed and refed with the same medium. At the time indicated in FIG. 7, cells were harvested by trypsinization and counted in a Coulter counter. Panels A, C, E show the growth rate of each cell line in the absence of inhibitor. Panels B, D, F show the inhibition of growth as a function of concentration of BZA-5B at each time point. […]
To examine the effects of farnesyltransferase inhibition on the growth of human tumor cell lines, several such lines were treated with 25 μM BZA-5B (compound 37B) using a procedure similar to that described in Example 129 above. Cells were refed with fresh media at days 3 and 6 containing the inhibitor, and were harvested and counted as described above. […]

SMILES strings stand for the structures.

Take `CSCC[C@H](NC(=O)CN1C(=O)C(N(C)C(=O)[C@@H](N)CS)N=C(c2ccccc2)c2ccccc21)C(=O)O` (single isomer, unassigned) [27B]: the “labeling of Triton-soluble farnesylated proteins (F1 to F3)” value in assay [1] (250 μM, FIG. 3) is listed as “markedly decreased the labeling of all three Triton-soluble farnesylated proteins (F1 to F3)”. For the same compound, the “effect on low molecular weight GTP binding proteins (SMG)” value in assay [2] (250 μM, FIG. 3) was “little effect on the low molecular weight GTP binding proteins”.

`COC(=O)[C@H](CCSC)NC(=O)CN1C(=O)C(N(C)C(=O)[C@@H](N)CS)N=C(c2ccccc2)c2ccccc21` (single isomer, unassigned) [37B]: the IC (almost complete) in assay [1] (Cricetulus griseus, read-out: concentration of almost complete inhibition of farnesylation of F1-3) was found to be 25 µM. In assay [1] (Cricetulus griseus, read-out: concentration of detectable inhibition of farnesylation of F1-3), the minimal effective concentration is 10 µM. Besides, in assay [1] (dose dependence, FIG. 4, compared with 27B and 37B), the “relative potency in intact cells” value was “much more potent than the parent, compound 27B”. Further, the “incorporation of radioactivity into SMG proteins” value in assay [2] (increasing concentration, FIG. 5, lanes 2-4) was “did not detectably inhibit the incorporation of radioactivity into the abundant SMG proteins”. Moreover, the inhibition at 25 µM in the assay with MDA-7 cells amounted to 0%.

The record behind these values is US5843941A, “Ras farnesyl transferase inhibitors” (Genentech, Inc., priority 1994, dated 1998).
